The target in one assay is full-length human BTK (Homo sapiens (Human), UniProt Q06187). Put plainly: Assay A: microfluidic off-chip mobility shift assay against BTK enzyme. The assay is classed as biochemical. As for the experimental part: Assay A: Microfluidic Off-Chip Mobility Shift Assay Protocol for Potency Assessment Against BTK Enzyme
The protocol below describes microfluidic, off-chip mobility shift kinase assay to measure inherent potency of compounds against BTK enzyme.
5 uL of enzyme buffer and 7.5 uL of ATP/kinKDR peptide substrate mix were added to Matrix (#115304) 384-well, sterile, polypropylene plates (Thermo Fisher Scientific, Hudson, N.H.) with 125 nL of serially diluted compounds prepared in 100% DMSO, and incubated for 90 min. at 27° C. Following the incubation period, reactions were stopped by adding 60 uL stop buffer consisting of 100 mM HEPES, pH 7.5, 0.015% Brij-35 (30%), 0.277% Coating Reagent #3 (Caliper Life Sciences, Mountain View, Calif.), 5% DMSO. Stopped reactions were monitored at −2 PSI, −3000 V/−700 V in a LabChip 3000 plate reader from Caliper Life Sciences, a PerkinElmer Company (Hopkinton, Mass.), and the activity was measured by off-chip mobility shift assay measuring the charge/mass difference between substrate and product resulting from peptide phosphorilation. IC50 and efficacy were determined by plotting log [Inhibitor] vs. % Activity in GeneData Screener (Basel. Switzerland).

For assay [1], the system named is anti-IgM-induced expression of CD69 on CD19 positive cells (B cells) in human PBMCs. Put plainly: Assay C: PBMC IC50 assay (anti-IgM-induced CD69 expression). The format is cell-based. The note with it: anti-IgM stimulation. As for the experimental part: Btk is critical for mediating the signalling of B cell antigen receptor (BCR) after anti-IgM stimulation. Based on this principle, a functional cell-based assay was established to determine the potency of compounds at inhibiting anti-IgM-induced expression of CD69, a downstream BCR signaling event, in freshly isolated human peripheral blood mononuclear cells (PBMCs). In the assay, a 90 μl PBMC suspension containing 2.5×10^5 cells was pre-treated with 10 μl of test compound at various concentrations for an hour, and then incubated overnight (approximately 16-18 hours) with 5 μl 420 μg/ml affiniPure F(ab′)2 fragment goat anti-human IgM Fc fragment per well (Dianova, Cat. No.: 109-006-129). After the incubation, the cells were washed and immunostained with an APC-labeled mouse anti-human CD69 (BD Biosciences; clone: FN50), a PerCP-Cy5.5 labelled mouse anti-human CD19 (BD Biosciences; clone: SJ25C1) and a FITC-labelled mouse anti-human CD3 (BD Biosciences; clone: HIT3a), and fixed for flow cytometric analysis of CD69 expression on CD19 positive cells (B cells). The percentage of CD69 expressing CD19 positive cells was plotted against the concentrations of test compounds to obtain a concentration response curve, and calculate an IC50 value as a measure of the potency of test compounds in the assay.

The target of assay [2] is BTK C481S (His-TEV-hsBTK(328-659)(C481S)) (Homo sapiens (Human), UniProt Q06187, C481S). Nature of the assay: Assay B: microfluidic off-chip mobility shift assay against BTK C481S enzyme. The format is biochemical. The conditions noted are these: BTK C481S mutant. On the procedure: The mechanics of the assay platform are described by the vendor (PerkinElmer, Hopkinton, Mass.) on their website at the following URL: http://caliperls.com.
5 uL of enzyme buffer and 7.5 uL of ATP/KinKDR peptide substrate mix were added to Matrix (#4315) 384-well, sterile, flat-bottom polypropylene plates (Thermo Fisher Scientific, Hudson, N.H.) with 125 nL of serially diluted compounds prepared in 100% DMSO, and incubated for 90 min. at 25° C. Following the incubation period, reactions were terminated by adding 65 uL quench buffer consisting of 100 mM HEPES, pH 7.5, 0.015% Brij-35 (30%), 0.277% Coating Reagent #3 (PerkinElmer, Mountain View, Calif.), 5% DMSO. Terminated reactions were monitored at −2 PSI, −3000 V/−700 Volts in a LabChip 3000 plate reader from Caliper Life Sciences, a PerkinElmer Company (Hopkinton, Mass.), and the activity was quantified by laser-induced fluorescence measuring the charge/mass difference between substrate and product resulting from peptide phosphorylation. IC50 and efficacy were determined by plotting log [Inhibitor] vs. % Activity in GeneData Screener (Basel, Switzerland).

pIC50: −log10 of the molar value.

Chain of BTK C481S (His-TEV-hsBTK(328-659)(C481S)) (Q06187 328-659 C481S): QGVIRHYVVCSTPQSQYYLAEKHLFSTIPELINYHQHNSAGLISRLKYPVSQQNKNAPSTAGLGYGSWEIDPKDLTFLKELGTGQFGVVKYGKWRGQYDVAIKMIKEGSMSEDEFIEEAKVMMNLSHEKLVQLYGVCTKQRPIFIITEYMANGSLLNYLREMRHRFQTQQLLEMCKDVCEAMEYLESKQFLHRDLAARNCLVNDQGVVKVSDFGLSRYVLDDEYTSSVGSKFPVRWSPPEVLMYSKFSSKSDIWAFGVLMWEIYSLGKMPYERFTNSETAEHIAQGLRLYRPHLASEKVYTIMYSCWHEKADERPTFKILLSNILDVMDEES
Chain of full-length human BTK (Q06187 whole entry): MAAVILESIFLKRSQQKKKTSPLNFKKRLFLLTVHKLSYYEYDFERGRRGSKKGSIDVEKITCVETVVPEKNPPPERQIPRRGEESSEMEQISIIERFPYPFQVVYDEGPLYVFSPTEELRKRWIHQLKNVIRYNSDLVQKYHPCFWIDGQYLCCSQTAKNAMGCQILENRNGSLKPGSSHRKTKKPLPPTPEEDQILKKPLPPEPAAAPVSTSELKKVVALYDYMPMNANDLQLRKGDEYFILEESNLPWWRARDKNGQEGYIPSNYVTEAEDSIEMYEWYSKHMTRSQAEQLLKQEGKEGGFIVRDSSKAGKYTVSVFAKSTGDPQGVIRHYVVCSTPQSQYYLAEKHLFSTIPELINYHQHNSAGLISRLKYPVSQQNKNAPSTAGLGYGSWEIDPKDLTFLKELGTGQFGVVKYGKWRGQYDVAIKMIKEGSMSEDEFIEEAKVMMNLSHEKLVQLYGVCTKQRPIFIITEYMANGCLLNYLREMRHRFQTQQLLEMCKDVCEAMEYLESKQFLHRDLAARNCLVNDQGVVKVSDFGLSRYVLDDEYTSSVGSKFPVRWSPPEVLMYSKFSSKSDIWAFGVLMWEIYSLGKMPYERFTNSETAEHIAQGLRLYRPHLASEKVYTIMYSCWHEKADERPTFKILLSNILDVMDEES

Take `O=C(c1ccc(-c2nc3c(-c4cccc(N5CCOc6cc(C7CC7)cc(F)c6C5=O)c4CO)ccnc3[nH]2)cc1)N1CCOCC1` [Example 1, 8-Cyclopropyl-6-fluoro-4-[2-(hydroxymethyl)-3-(2-[4-[(morpholin-4-yl)carbonyl]phenyl]-3H-imidazo [4,5-b]pyridin-7-yl)phenyl]-2,3,4,5-tetrahydro-1,4-benzoxazepin-5-one]: the pIC50 was > 7.00 at full-length human BTK and 5.30 to 6.00 in assay [1]. On the same counts, the results for `Cc1c(NC(=O)c2ccc3c(c2)OCC3(C)C)cc(F)cc1-c1ccnc2[nH]c(-c3ccc(C(=O)N4CCOCC4)cc3)nc12` [Example 4, N-[5-Fluoro-2-methyl-3-(2-[4-[(morpholin-4-yl)carbonyl]phenyl]-3H-imidazo[4,5-b]pyridin-7-yl)phenyl]-3,3-dimethyl-2,3-dihydro-1-benzofuran-6-carboxamide] are > 7.00 and 6.00 to 7.00. Take `Cn1cc(-c2nc3c(-c4cccc(N5CCc6cc(C7CC7)ccc6C5=O)c4CO)ccnc3[nH]2)cn1` [Example 7, 6-cyclopropyl-2-(2-(hydroxymethyl)-3-(2-(1-methyl-1H-pyrazol-4-yl)-3H-imidazo[4,5-b]pyridin-7-yl)phenyl)-3,4-dihydroisoquinolin-1(2H)-one]: the pIC50 at full-length human BTK is > 7.00; in assay [1] it was 5.30 to 6.00. As for `Cn1cc(-c2nc3c(-c4ccc(CNC(=O)C5CCC(C(C)(C)C)CC5)c(F)c4)ccnc3[nH]2)cn1` (stereo not shown) [Example 15, 4-tert-Butyl-cyclohexanecarboxylic acid 2-fluoro-4-[2-(1-methyl-1H-pyrazol-4-yl)-3H-imidazo[4,5-b]pyridin-7-yl]-benzylamide], the pIC50 in assay [1] is 5.30 to 6.00.

Turning to `CC(C)(C)c1noc(C(=O)NCc2ccc(-c3ccnc4[nH]c(C5CC5)nc34)cc2F)n1` [Example 28, 3-tert-Butyl-[1,2,4]oxadiazole-5-carboxylic acid 4-(2-cyclopropyl-3H-imidazo[4,5-b]pyridin-7-yl)-2-fluoro-benzylamide], the negative logarithm of the IC50 (pIC50) in assay [1] is 5.30 to 6.00.

For `Cn1cc(-c2nc3c(-c4ccc(C(C)(C)NC(=O)C(N)=O)c(F)c4)ccnc3[nH]2)cn1` [Example 102, N-(1-{2-Fluoro-4-[2-(1-methyl-1H-pyrazol-4-yl)-3H-imidazo[4,5-b]pyridin-7-yl]-phenyl}-1-methyl-ethyl)-oxalamide], the pIC50 (at full-length human BTK; in assay [2]) was 5.30 to 6.00 in each case. Take `CC(C)(C)c1nc(C(=O)NCc2ccc(-c3ccnc4[nH]c(-c5cnn(CCN6CCOCC6)c5)nc34)cc2F)no1` [Example 119, 5-tert-Butyl-[1,2,4]oxadiazole-3-carboxylic acid 2-fluoro-4-{2-[1-(2-morpholin-4-yl-ethyl)-1H-pyrazol-4-yl]-3H-imidazo[4,5-b]pyridin-7-yl}-benzylamide]: the pIC50 (on full-length human BTK; in assay [2]) was > 7.00 throughout. For `Cn1cc(-c2nc3c(-c4ccc(C5CCCN5C(=O)c5ccc(C(C)(C)C)cc5)cc4)ccnc3[nH]2)cn1` (stereo not shown) [Example 121, (4-tert-Butyl-phenyl)-(2-{4-[2-(1-methyl-1H-pyrazol-4-yl)-3H-imidazo[4,5-b]pyridin-7-yl]-phenyl}-pyrrolidin-1-yl)-methanone], the pIC50 (on full-length human BTK; in assay [2]) was > 7.00 each time. On to `CC(C)(C)c1nnc(C(=O)NCc2ccc(-c3ccnc4[nH]c(-c5cnn(C6COC6)c5)nc34)cc2F)s1` [Example 125, 5-tert-Butyl-[1,3,4]thiadiazole-2-carboxylic acid 2-fluoro-4-[2-(1-oxetan-3-yl-1H-pyrazol-4-yl)-3H-imidazo[4,5-b]pyridin-7-yl]-benzylamide], for which the pIC50 (at full-length human BTK; in assay [2]) was > 7.00 each time. `CC(C)(C)c1nnc(C(=O)NCc2ccc(-c3ccnc4[nH]c(-c5cnn(C6CCOCC6)c5)nc34)cc2F)o1` [Example 126, 5-tert-Butyl-[1,3,4]oxadiazole-2-carboxylic acid 2-fluoro-4-{2-[1-(tetrahydro-pyran-4-yl)-1H-pyrazol-4-yl]-3H-imidazo[4,5-b]pyridin-7-yl}-benzylamide]: the pIC50 (on full-length human BTK; in assay [2]) was > 7.00 each time. Take `Cn1cc(-c2nc3c(-c4ccc(CNC(=O)c5cc6c(s5)CCCC6)c(F)c4)ccnc3[nH]2)cn1` [Example 132, N-(2-fluoro-4-(2-(1-methyl-1H-pyrazol-4-yl)-3H-imidazo[4,5-b]pyridin-7-yl)benzyl)-4,5,6,7-tetrahydrobenzo[b]thiophene-2-carboxamide]: the pIC50 in assay [1] is 6.00 to 7.00. Take `Cn1ccc(-c2nc3c(-c4ccc(CNC(=O)c5nnc(C(C)(C)C)o5)c(F)c4)ccnc3[nH]2)cc1=O` [Example 141, 5-tert-Butyl-[1,3,4]oxadiazole-2-carboxylic acid 2-fluoro-4-[2-(1-methyl-2-oxo-1,2-dihydro-pyridin-4-yl)-3H-imidazo[4,5-b]pyridin-7-yl]-benzylamide]: the pIC50 (at full-length human BTK; in assay [2]) was > 7.00 throughout.

For the compound `CC(C)(C)c1noc(C(=O)NCc2ccc(-c3ccnc4[nH]c(-c5cccnc5)nc34)cc2F)n1` [Example 149, 3-(tert-butyl)-N-(2-fluoro-4-(2-(pyridin-3-yl)-3H-imidazo[4,5-b]pyridin-7-yl)benzyl)-1,2,4-oxadiazole-5-carboxamide], the pIC50 (at full-length human BTK; in assay [2]) was > 7.00 in each case. Turning to `CC(C)(C)c1noc(C(=O)NCc2ccc(-c3ccnc4[nH]c(-c5ccncc5)nc34)cc2F)n1` [Example 150, 3-(tert-butyl)-N-(2-fluoro-4-(2-(pyridin-4-yl)-3H-imidazo[4,5-b]pyridin-7-yl)benzyl)-1,2,4-oxadiazole-5-carboxamide], the pIC50 (on full-length human BTK; in assay [2]) was > 7.00 each time.

Regarding `COc1ncccc1-c1nc2c(-c3ccc(CNC(=O)c4nc(C(C)(C)C)no4)c(F)c3)ccnc2[nH]1` [Example 151, 3-(tert-butyl)-N-(2-fluoro-4-(2-(2-methoxypyridin-3-yl)-3H-imidazo[4,5-b]pyridin-7-yl)benzyl)-1,2,4-oxadiazole-5-carboxamide], the pIC50 (on full-length human BTK; in assay [2]) was > 7.00 throughout. As for `COc1cccnc1-c1nc2c(-c3ccc(CNC(=O)c4nc(C(C)(C)C)no4)c(F)c3)ccnc2[nH]1` [Example 152, 3-(tert-butyl)-N-(2-fluoro-4-(2-(3-methoxypyridin-2-yl)-3H-imidazo[4,5-b]pyridin-7-yl)benzyl)-1,2,4-oxadiazole-5-carboxamide], the pIC50 (at full-length human BTK; in assay [2]) was > 7.00 each time. As for `Cn1cc(-c2nc3c(-c4ccc5c(c4)CN(C(=O)c4nc(C(C)(C)C)no4)CC5)ccnc3[nH]2)cn1` [Example 155, (3-tert-Butyl-[1,2,4]oxadiazol-5-yl)-{7-[2-(1-methyl-1H-pyrazol-4-yl)-3H-imidazo[4,5-b]pyridin-7-yl]-3,4-dihydro-1H-isoquinolin-2-yl}-methanone], the pIC50 (on full-length human BTK; in assay [2]) was < 5.30 each time. In the case of `Cn1cc(-c2nc3c(-c4ccc5c(c4)CN(C(=O)c4nc(C(C)(C)C)no4)C5)ccnc3[nH]2)cn1` [Example 156, (3-tert-Butyl-[1,2,4]oxadiazol-5-yl)-{5-[2-(1-methyl-1H-pyrazol-4-yl)-3H-imidazo[4,5-b]pyridin-7-yl]-1,3-dihydro-isoindol-2-yl}-methanone], the pIC50 is 6.00 to 7.00 on full-length human BTK and 5.30 to 6.00 in assay [2]. In the case of `Cn1cc(-c2nc3c(-c4ccc(CNC(=O)c5nc(C6(C)CC6)no5)c(F)c4)ccnc3[nH]2)cn1` [Example 165, N-([2-fluoro-4-[2-(1-methyl-1H-pyrazol-4-yl)-3H-imidazo[4,5-b]pyridin-7-yl]phenyl]methyl)-3-(1-methylcyclopropyl)-1,2,4-oxadiazole-5-carboxamide], the pIC50 in assay [1] was 6.00 to 7.00.
